Test results published in patent publication US7776924B2, “Nitroaniline-based alkylating agents and their use as prodrugs” (Auckland Uniservices Limited, priority 2002, dated 2010).
Marks after values point to notes of the source that are not given here.

Legend:
Format in all cases: cell-based
SKOV3 = test: Cytotoxicity in wild-type (NR−) human ovarian cell line SKOV3
SC3.2 = test: Cytotoxicity in NTR-transfected (NR+) human ovarian cell line SC3.2; details: for IC50: SC3.2 NTR-transfected, 18 h exposure; for Ratio = IC50(NR−)/IC50(NR+) Human Ovarian: SKOV3 / SC3.2, 18 h exposure
WC14.10 = test: Cytotoxicity in NTR-transfected (NR+) human colon cell line WC14.10; details: for IC50: WC14.10 NTR-transfected
WIDR = test: Cytotoxicity in wild-type (NR−) human colon cell line WIDR
[1] = test system: A549 transfected with human cytochrome P450 reductase (P450R); test: Cytotoxicity in oxic and anoxic A549 cells transfected with human cytochrome P450 reductase; details: 4 h exposure
[2] = test system: A549 human lung carcinoma cells; test: Cytotoxicity in oxic and anoxic wild-type A549 human lung carcinoma cells; details: 4 h exposure
[3] = Homo sapiens, SK-OV-3, 18 h exposure

Row | SMILES | Ratio = IC50(NR−)/IC50(NR+) Human Ovarian (SC3.2) | Ratio = IC50(NR−)/IC50(NR+) Human colon (WC14.10; WIDR / WC14.10, 18 h exposure) | IC50 (SKOV3; 18 h exposure) [µM] | IC50 (SC3.2) [µM] | IC50 (WC14.10; 18 h exposure) [µM] | IC50 (WIDR; 18 h exposure) [µM] | also measured
1 | NC(=O)c1cc(N(CCCl)CCBr)c([N+](=O)[O-])cc1[N+](=O)[O-] [IIa2, 5-[(2-Bromoethyl)(2-chloroethyl)amino]-2,4-dinitrobenzamide] | 280 | 235 | – | – | – | – | IC50 (SKOV3; [3]): 226 µM; IC50 (SC3.2; Homo sapiens): 0.84 µM; IC50 (WC14.10; Homo sapiens, 18 h exposure): 0.69 µM; IC50 (WIDR; Homo sapiens, 18 h exposure): 150 µM
2 | CS(=O)(=O)OCCN(CCBr)c1cc(C(N)=O)c([N+](=O)[O-])cc1[N+](=O)[O-] [IIa3, 2-[5-(Aminocarbonyl)(2-bromoethyl)-2,4-dinitroanilino]ethyl methanesulfonate] | 715 | 387 | 135 | 0.19 | 0.22 | 80 | –
3 | CS(=O)(=O)OCCN(CCI)c1cc(C(N)=O)c([N+](=O)[O-])cc1[N+](=O)[O-] [IIa4, 2-[5-(Aminocarbonyl)(2-iodoethyl)-2,4-dinitroanilino]ethyl methanesulfonate] | 311 | 172 | 97 | 0.33 | 0.41 | 70 | –
4 | CS(=O)(=O)OCCN(CCBr)c1cc(C(=O)NCCCO)c([N+](=O)[O-])cc1[N+](=O)[O-] [IIa6, 2-((2-Bromoethyl)5-{[(3-hydroxypropyl)amino]carbonyl}-2,4-dinitroanilino)ethyl methanesulfonate] | – | 91 | – | – | 5 | 453 | P450R ratio = IC50(aerobic)/IC50(anoxic) [1]: 18; IC50 ([1]; anoxic): 31 µM; WT Ratio = IC50(aerobic)/IC50(anoxic) [2]: 2.4; IC50 ([2]; anoxic, read-out: IC50 WT anoxic): 348 µM
5 | CS(=O)(=O)OCCN(CCBr)c1cc(C(=O)NCC(O)CO)c([N+](=O)[O-])cc1[N+](=O)[O-] (stereo not drawn) [IIa7, 2-((2-Bromoethyl)-5-{[(2,3-dihydroxypropyl)amino]carbonyl}-2,4-dinitroanilino)ethyl methanesulfonate] | – | 268 | 1110 | 1.74 | 3 | 804 | –
6 | CS(=O)(=O)OCCN(CCCl)c1c(C(N)=O)cc([N+](=O)[O-])cc1[N+](=O)[O-] [IIb1, 2-[2-(Aminocarbonyl)(2-chloroethyl)-4,6-dinitroanilino]ethyl methanesulfonate] | 1890 | 303 | 80 | 0.04 | 0.07 | 20 | –
7 | CS(=O)(=O)OCCN(CCBr)c1c(C(N)=O)cc([N+](=O)[O-])cc1[N+](=O)[O-] [IIb2, 2-[2-(Aminocarbonyl)(2-bromoethyl)-4,6-dinitroanilino]ethyl methanesulfonate] | 762 | 227 | 6 | 0.007 | 0.02 | 4.3 | –
8 | CS(=O)(=O)OCCN(CCBr)c1c(C(=O)NCC(O)CO)cc([N+](=O)[O-])cc1[N+](=O)[O-] (stereo not drawn) [IIb6, 2-((2-Bromoethyl)-2-{[(2,3-dihydroxypropyl)amino]carbonyl}-4,6-dinitroanilino)ethyl methanesulfonate] | 140 | 52 | 26 | 0.19 | 0.21 | 11 | –
9 | CS(=O)(=O)OCCN(CCBr)c1c(C(=O)NCCCN2CCOCC2)cc([N+](=O)[O-])cc1[N+](=O)[O-] [IIb7, 2-[(2-Bromoethyl)-2-({[3-(4-morpholinyl)propyl]amino}carbonyl)-4,6-dinitroanilino]ethyl methanesulfonate] | 102 | 22 | 3.1 | 0.03 | 0.05 | 0.89 | –
10 | COC(=O)CCNC(=O)c1cc([N+](=O)[O-])cc([N+](=O)[O-])c1N(CCBr)CCOS(C)(=O)=O [IIb9, Methyl 3-{[2-((2-bromoethyl){2-[(methylsulfonyl)oxy]ethyl}amino)-3,5-dinitrobenzoyl]amino}propanoate] | 25 | 6.3 | – | – | – | – | IC50 (SKOV3; [3]): 3.7 µM; IC50 (SC3.2; Homo sapiens): 0.15 µM; IC50 (WC14.10; Homo sapiens, 18 h exposure): 0.24 µM; IC50 (WIDR; Homo sapiens, 18 h exposure): 1.44 µM
11 | CS(=O)(=O)OCCN(CCCl)c1ccc([N+](=O)[O-])c(C(N)=O)c1[N+](=O)[O-] [IIc1, 2-[3-(Aminocarbonyl)(2-chloroethyl)-2,4-dinitroanilino]ethyl methanesulfonate] | 390 | 120 | 196 | 0.55 | 1 | 121 | –
12 | CS(=O)(=O)OCCN(CCBr)c1c([N+](=O)[O-])ccc(C(N)=O)c1[N+](=O)[O-] [IIc2, 2-[3-(Aminocarbonyl)(2-bromoethyl)-2,6-dinitroanilino]ethyl methanesulfonate] | 724 | 271 | 150 | 0.21 | 0.31 | 85 | –
13 | CS(=O)(=O)OCCN(CCBr)c1c([N+](=O)[O-])ccc(C(=O)NCCCCO)c1[N+](=O)[O-] [IIc6, 2-((2-Bromoethyl)-3-{[(4-hydroxybutyl)amino]carbonyl}-2,6-dinitroanilino)ethyl methanesulfonate] | – | – | – | – | – | – | IC50 (WC14.10; 4 h exposure): 20 µM; Ratio = IC50(NR−)/IC50(NR+) Human colon (WC14.10; WIDR / WC14.10, 4 h exposure): 16^f; IC50 (WIDR; 4 h exposure): 314 µM
14 | CS(=O)(=O)OCCN(CCCl)c1ccc([N+](=O)[O-])c(C(=O)NCC(O)CO)c1[N+](=O)[O-] (stereo not drawn) [IIc7, 2-((2-Chloroethyl)-3-{[(2,3-dihydroxypropyl)amino]carbonyl}-2,4-dinitroanilino)ethyl methanesulfonate] | 267 | 262 | 1680 | 6.6 | 4.3 | 856 | –
15 | CS(=O)(=O)OCCN(CCBr)c1ccc([N+](=O)[O-])c(C(=O)NCC(O)CO)c1[N+](=O)[O-] (stereo not drawn) [IIc8, 2-((2-Bromoethyl)-3-{[(2,3-dihydroxypropyl)amino]carbonyl}-2,4-dinitroanilino)ethyl methanesulfonate] | 509 | 141 | 890 | 1.8 | 1.5 | 214 | –
16 | CS(=O)(=O)OCCN(CCCl)c1ccc([N+](=O)[O-])c(C(=O)NCCCN2CCOCC2)c1[N+](=O)[O-] [IIc9, 2-[(2-Chloroethyl)-3-({[3-(4-morpholinyl)propyl]amino}carbonyl)-2,4-dinitroanilino]ethyl methanesulfonate] | 14 | 8.3 | 433 | 32 | 31 | 262 | –
17 | CS(=O)(=O)OCCN(CCBr)c1ccc([N+](=O)[O-])c(C(=O)NCCCN2CCOCC2)c1[N+](=O)[O-] [IIc10, 2-[(2-Bromoethyl)-3-({[3-(4-morpholinyl)propyl]amino}carbonyl)-2,4-dinitroanilino]ethyl methanesulfonate] | 14 | 8.2 | 156 | 11 | 11 | 94 | –
